From patent publication US5624897A, “Cyclic depsipeptides having 18 ring atoms, and their use for combating endoparasites” (Bayer Aktiengesellschaft, priority 1993, dated 1997)

Assays:
[1] = test system: Trichostrongylus colubriformis; assay: In vivo nematode test Trichostrongylus colubriformis/sheep; conditions: experimentally infected sheep, treated after prepatent period; pure active compound orally and/or intravenously; dose at which nematode egg excretion with the faeces stops completely
Method: Trichostrongylus colubriformis/Sheep
Sheep which have been infected experimentally with Trichostrongylus colubriformis were treated after the prepatent period had elapsed. The active compounds in the form of the pure active compound were administered orally and/or intravenously.
(§1) The degree of effectiveness is determined by quantitative determination of the nematode eggs excreted with the faeces before and after the treatment.
(§2) If, after the treatment, egg excretion stops completely, the nematodes were aborted or damaged to such an extent that they no longer produce eggs (dosis effectiva).

Haemonchus contortus = assay: In vivo nematode test Haemonchus contortus/sheep; conditions: experimentally infected sheep, treated after prepatent period; pure active compound orally and/or intravenously; dose at which nematode egg excretion with the faeces stops completely
Method: Haemonchus contortus/Sheep
Sheep which have been infected experimentally with Haemonchus contortus were treated after the prepatent period had elapsed. The active compounds in the form of the pure active compound were administered orally and/or intravenously.
as §1, §2

CC[C@H](C)[C@H]1C(=O)O[C@H](C)C(=O)N(C)[C@@H](C)C(=O)O[C@H](C)C(=O)N(C)[C@@H]([C@@H](C)CC)C(=O)O[C@H](C)C(=O)N1C [Example 1, Cyclo(-N-methyl-L-alanyl-D-lactyl-N-methyl-L-isoleucyl-D-lactyl-N-methyl-L- isoleucyl-D-lactyl-)]
Dosis effectiva [1]: 10 mg/kg | Dosis effectiva (Haemonchus contortus): 10 mg/kg
